Assay results published in PubChem BioAssay AID504479 (NMMLSC, 2011).
Activity calls are given as the source filed them.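 The calls were made as follows: active = GFP ratio vs DMSO below 0.65 in a strain, using the primary screen cutoff set for that strain's protein target; inactive = the rest.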

Legend:
Assay in all cases: TORC1 pathway position of GFP reporter effects – S. cerevisiae, TORC1 bypass vs wild-type strains, mechanism study for yeast TOR pathway modulator project (AID 504479)
Settings in all cases: fluorescence ratio vs DMSO, at 10 µM
BY4741 = test system: BY4741
YBR084C-A = test system: YBR084C-A
YCL025C = test system: YCL025C
YCR005C = test system: YCR005C
YKL103C = test system: YKL103C
YNL142W = test system: YNL142W
[1] = RPL19A-GFP in TORC1 bypass strain, stronger effect = lower value
[2] = AGP1-GFP in TORC1 bypass strain, stronger effect = higher value
[3] = CIT2-GFP in TORC1 bypass strain, stronger effect = higher value
[4] = LAP4-GFP in TORC1 bypass strain, stronger effect = higher value
[5] = MEP2-GFP in TORC1 bypass strain, stronger effect = higher value

Row | SMILES | GFP ratio vs DMSO (BY4741) | GFP ratio vs DMSO (YBR084C-A; [1]) | GFP ratio vs DMSO (YBR084C-A) | GFP ratio vs DMSO (YCL025C; [2]) | GFP ratio vs DMSO (YCL025C) | GFP ratio vs DMSO (YCR005C; [3]) | GFP ratio vs DMSO (YCR005C) | GFP ratio vs DMSO (YKL103C; [4]) | GFP ratio vs DMSO (YKL103C) | GFP ratio vs DMSO (YNL142W; [5]) | GFP ratio vs DMSO (YNL142W)
1 | CN1CCN(C(c2ccc(C(F)(F)F)cc2)c2ccc3cccnc3c2O)CC1 (stereo unspecified) | 0.792 (inactive) | 0.96 | 0.85 (inactive) | 0.842 | 0.994 (inactive) | 0.633 | 0.641 (inactive) | 1.29 | 1.58 | 0.978 | 0.993 (inactive)
2 | Cn1ncc(S(=O)(=O)Cc2ccccc2)c(Cl)c1=O | 1.31 (inactive) | 0.786 | 0.76 (inactive) | 0.801 | 0.984 (inactive) | 1.02 | 1.15 (inactive) | 1.56 | 1.63 | 0.971 | 1.46 (inactive)
3 | CC(=O)c1ccc(N2CCN(C(=O)c3ccc(Br)cc3)CC2)c(F)c1 | 1.18 (inactive) | 1.33 | 1.28 (inactive) | 1.42 | 1.17 (inactive) | 1.12 | 1.85 | 1.27 | 1.94 | 1.25 | 1.3 (inactive)
4 | CSC1=NS(=O)(=O)c2c(C)nn(C)c2S1 | 0.833 (inactive) | 0.9 | 0.887 (inactive) | 0.961 | 1.01 (inactive) | 0.826 | 0.78 (inactive) | 1.06 | 1.36 (inactive) | 0.862 | 0.972 (inactive)
5 | CCOC(=O)c1c(C)oc2c1c(C(c1cccnc1)N1CCOCC1)c(O)c1ccccc12 (stereo unspecified) | 1.09 (inactive) | 1.1 | 0.914 (inactive) | 0.642 | 0.972 (inactive) | 0.839 | 1.12 (inactive) | 1.21 | 2.09 | 1.08 | 1.27 (inactive)
6 | O=C(Oc1c(Cl)cc(Cl)c2cccnc12)c1cccc([N+](=O)[O-])c1 | 0.774 (inactive) | 1.12 | 1.18 (inactive) | 0.717 | 0.875 (inactive) | 0.791 | 1.07 (inactive) | 1.15 | 1.68 | 1.01 | 0.95 (inactive)
7 | O=C(Oc1ccnc2cc(Cl)ccc12)N1CCCCCC1 | 1 (inactive) | 0.82 | 1.19 (inactive) | 1.12 | 1.78 | 0.708 | 0.635 (inactive) | 0.997 | 1.15 (inactive) | 0.897 | 1.96
8 | Clc1ccc(N=c2ssnc2Cl)cc1 | 1.09 (inactive) | 1.08 | 1.02 (inactive) | 0.884 | 0.946 (inactive) | 1.02 | 1.25 (inactive) | 1.29 | 1.64 | 1.08 | 1.04 (inactive)
9 | C/C(=N\NC(=O)c1ccc(C(C)(C)C)cc1)c1ccccn1 | 1.12 (inactive) | 0.974 | 1.03 (inactive) | 0.884 | 0.896 (inactive) | 0.847 | 0.835 (inactive) | 0.982 | 1.13 (inactive) | 0.969 | 0.804 (inactive)
10 | Cc1ccc(S(=O)(=O)c2ccc([N+](=O)[O-])cn2)cc1 | 0.941 (inactive) | 0.938 | 0.929 (inactive) | 0.813 | 1.11 (inactive) | 0.861 | 1.05 (inactive) | 1.67 | 2.26 | 0.948 | 1.29 (inactive)
11 | O=C1ON=C(c2ccccc2)/C1=C\c1ccco1 | 0.875 (inactive) | 0.897 | 0.947 (inactive) | 0.759 | 1.01 (inactive) | 0.826 | 1.1 (inactive) | 1.26 | 1.97 | 0.993 | 1.1 (inactive)
12 | CC(C)(C)n1nc(-c2ccc(Cl)cc2)c2c(N)ncnc21 | 0.794 (inactive) | 0.612 | 0.547 | 0.927 | 0.943 (inactive) | 0.547 | 0.359 (inactive) | 1.2 | 1.48 (inactive) | 0.887 | 1.04 (inactive)
13 | CC(C)(C)C(=O)NC(=S)NNC(=O)c1ccc(-c2ccccc2)cc1 | 1.36 (inactive) | 1.2 | 1.25 (inactive) | 1.03 | 1.07 (inactive) | 0.935 | 1.37 (inactive) | 1.47 | 2.48 | 1.27 | 1.51 (inactive)
14 | Cc1ccc(/C=C2/C(=O)ON=C2c2ccccc2)o1 | 0.941 (inactive) | 0.962 | 1 (inactive) | 0.642 | 0.87 (inactive) | 0.898 | 1.23 (inactive) | 1.15 | 1.99 | 1.21 | 1.23 (inactive)
15 | O=[N+]([O-])c1ccc(S(=O)(=O)c2cccc(C(F)(F)F)c2)nc1 | 1.03 (inactive) | 0.969 | 0.902 (inactive) | 0.813 | 1.04 (inactive) | 0.934 | 0.976 (inactive) | 1.63 | 2.2 | 1.04 | 1.52 (inactive)
16 | CCCCC(=O)NNC(=S)NC(=O)c1ccc(C)cc1 | 1.56 (inactive) | 1.34 | 1.27 (inactive) | 0.974 | 1.1 (inactive) | 0.942 | 1.17 (inactive) | 2.03 | 3.37 | 1.24 | 1.22 (inactive)
